15 compounds from PubChem BioAssay (NCI) can be followed below.

Experiment in all cases: inhibition of tumour cell growth, NCI panel, 48 h
In assay [1] the test system is IGROV1 ovarian.
Assay [2] concerns PC-3 prostate.
Assay [3] has as its system SNB-19 CNS.
Assay [4] relates to SN12C renal.
Assay [5] deals with COLO 205 colon.
Assay [6] deals with EKVX NSCLC.
Assay [7] deals with KM12 colon.
The subject of assay [8] is M14 melanoma.
Assay [9] deals with SR leukemia.

Where “and” joins values, the source holds several entries; their conditions need not be identical. Equal values may be shown once.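 All cell lines were grown in 96-well plates and treated with compound for 48 hours. GI50: concentration for 50% inhibition of growth. The concentration for full growth arrest is given as TGI.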

`CSc1nnnc2ccccc12`: the TGI in assay [1], in [2], in assay [3], in assay [4], in [5] and in assay [6] was more than 100 µM each time. Moreover, the TGI in assay [7] and in assay [8] was more than 100 µM throughout.

`CCOC(=O)c1ccc2nc3n(c2c1)C(c1c(F)cccc1F)SC3` (centres undefined): the TGI in [1], in assay [2], in [3], in assay [4], in assay [5] and in assay [6] was more than 100 µM in each case. Besides, the TGI in assay [7], in assay [8] and in assay [9] was more than 100 µM each time.

Regarding `COP(=O)(CP(=O)(OC)OCCC(C)CCC=C(C)C)OC` (centres undefined), the TGI in [1], in assay [2], in assay [3], in assay [4], in assay [5] and in assay [6] was more than 100 µM in each case. The TGI in [7] and in [8] was more than 100 µM throughout.

Regarding `O=C1CCCC1CC(CN1CCOCC1)Sc1nnnn1-c1ccccc1` (centres undefined), the TGI in assay [1] was more than 100 µM; in assay [2], more than 100 µM; in [3], more than 100 µM; in [4], more than 100 µM; in assay [5], 33.1 µM; in assay [6] it was more than 100 µM. The TGI in assay [7], in [8] and in [9] was more than 100 µM in each case.

As to `Cc1ccc(/C=c2\c(=O)[nH]c3nc4ccccc4c(=O)n23)cc1`, the TGI in [2] was more than 100 µM; in assay [3] it was more than 100 µM; in [4], more than 100 µM; in assay [5], 42.2 µM; in [7], more than 100 µM; in [8] it was more than 100 µM.

As for `C=C1c2c(n(S(=O)(=O)c3ccccc3)c3ccccc23)[C@@]2(C(=O)OC)CC3C=CC2N1C3`, the TGI in [1], in assay [2], in [3], in assay [4], in [5] and in assay [6] was more than 100 µM each time. Further, the TGI in assay [7] and in [8] was more than 100 µM each time.

For the compound `C=CC(=O)N1C/C(=C\c2ccc(OC)cc2)C(=O)/C(=C/c2ccc(OC)cc2)C1`, the TGI in assay [1] is more than 21.4 µM; in [2], 4.19 µM; in [3] it was 28.3 µM; in assay [4], 6.83 µM; in [5], 9.99 µM; in assay [6], 40.7 µM. Moreover, the values for the TGI in assay [7], in assay [8] and in assay [9] were 5.22 µM, 4.78 µM and more than 100 µM, respectively.

Turning to `CC1(C)CCCCCC(O)C(O)CCC(C)(C)C1=O` (centres undefined), the TGI in assay [1], in assay [2], in assay [3], in [4], in [5] and in assay [6] was more than 100 µM each time. Moreover, the TGI in assay [7], in assay [8] and in assay [9] was more than 100 µM each time.

For the compound `CCOC(=O)c1nc2ccccc2nc1Nc1ccc(C(=O)OC)s1`, the TGI in assay [1], in assay [2], in [3], in [4], in assay [5] and in assay [6] was more than 100 µM each time. In addition, the TGI in [7], in assay [8] and in assay [9] was more than 100 µM each time.

As for `CC(=O)NC1C(OCc2ccccc2)OC(CO)C(O)C1OC(C)C(=O)NC(C(=O)NC(CCC(=O)NCCCNc1ccc([N+](=O)[O-])c2[nH]c3ccccc3c(=O)c12)C(N)=O)C(C)C` (centres undefined), the TGI in assay [1], in [2], in [3], in [4], in assay [5] and in assay [6] was more than 100 µM throughout. Besides, the TGI in assay [7] and in assay [8] was more than 100 µM throughout.

Regarding `N#Cc1ccc(-c2ccc(Cl)cc2)n(C2OC(CO)C(O)C(O)C2O)c1=S` (centres undefined), the GI50 in assay [1] is > 100 µM and 28 µM; in assay [3], > 100 µM and 26.4 µM; in assay [6], > 100 µM and 33.7 µM. In addition, the TGI in [1], in assay [2], in assay [3], in assay [4], in assay [6] and in [7] was more than 100 µM throughout. Also, the TGI in [8] and in assay [9] was more than 100 µM each time.

As for `COC(=O)/C=C1\C(CO[Si](C)(C)C(C)(C)C)OC(n2cc(C)c(=O)n(C)c2=O)C1O[Si](C)(C)C(C)(C)C` (centres undefined), the TGI in [1], in assay [2], in assay [3], in assay [4], in assay [5] and in assay [6] was more than 100 µM throughout. For the same compound, the TGI in assay [7] and in assay [8] was more than 100 µM in each case.

For `O=S(=O)(O)c1ccc(O)c(N=Nc2c(O)ccc3ccccc23)c1`, the TGI in [1], in assay [2], in [3], in assay [4], in [5] and in assay [6] was more than 100 µM each time. Further, the TGI in [7] and in [8] was more than 100 µM throughout.

In the case of `CC(=O)/C=C(/C)[O-].CC(=O)/C=C(/C)[O-].CC(=O)[CH-]C(C)=O.CC(=O)[CH-]C(C)=O.[Zr+4]`, the GI50 in [3], in assay [4], in assay [6], in [7], in assay [8] and in [9] was more than 100 µM in each case. Further, the TGI in [3], in assay [4], in assay [6], in [7], in assay [8] and in [9] was more than 100 µM each time.

In the case of `CCOC(=O)c1sc2nc(SC)nc3c2c1NCN3C`, the TGI in assay [1] was 39.2 µM; in assay [2], more than 100 µM; in assay [3], 75.3 µM; in assay [4] it was more than 100 µM; in assay [5], more than 100 µM; in assay [7], more than 100 µM. In [8], this compound showed a TGI of more than 100 µM.
